Source: PubChem BioAssay (NCI)
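The compound was tested at five concentrations on cells cultured in 96-well plates, with a 48-hour exposure period. GI50 = concentration required for 50% inhibition of growth. TGI marks complete inhibition of growth.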

Experiments:
Assay in all cases: growth of human tumour cells (NCI), 48 h
CCRF-CEM leukemia = tested on: CCRF-CEM leukemia
BT-549 breast = tested on: BT-549 breast
HOP-92 NSCLC = tested on: HOP-92 NSCLC
HCT-116 colon = tested on: HCT-116 colon
SF-539 CNS = tested on: SF-539 CNS
RPMI-8226 leukemia = tested on: RPMI-8226 leukemia
UO-31 renal = tested on: UO-31 renal
A549 NSCLC = tested on: A549 NSCLC
SR leukemia = tested on: SR leukemia
MCF7 breast = tested on: MCF7 breast

Compound `O=[N+]([O-])c1ccc(Sc2ncnc3nc[nH]c23)c2nonc12` has a GI50 (CCRF-CEM leukemia) of 1.78 µM, a TGI (CCRF-CEM leukemia) of 5.14 µM and a GI50 (BT-549 breast) of 10.3 µM. The TGI (BT-549 breast) was 27.4 µM, the GI50 (HOP-92 NSCLC) was 2 µM and the TGI (HOP-92 NSCLC) was 22.2 µM. It also gave a GI50 (HCT-116 colon) of 2.59 µM, a TGI (HCT-116 colon) of 12.9 µM and a GI50 (SF-539 CNS) of 4.53 µM. The TGI (SF-539 CNS) was 21.5 µM, the GI50 (RPMI-8226 leukemia) was 2.92 µM and the TGI (RPMI-8226 leukemia) was 48 µM. The GI50 (UO-31 renal) was 1.6 µM, the TGI (UO-31 renal) was 2.95 µM and the GI50 (A549 NSCLC) was 29.6 µM. For the same compound, the TGI (A549 NSCLC) was > 100 µM, the GI50 (SR leukemia) was 0.723 µM and the TGI (SR leukemia) was 13 µM. The GI50 (MCF7 breast) was 1.72 µM and the TGI (MCF7 breast) was 12.2 µM.
